Reference: patent publication US20240002393A1, “SUBSTITUTED BENZO[f][l ,2,4JTRIAZOL0[4,3-a][l ,4J[…] GABA A GAMMA! POSITIVE ALLOSTERIC MODULATORS” (Hoffmann-La Roche Inc., priority 2020, published 2024)

Key:
[1] = target: human GABAA α5β2γ1 receptor (Homo sapiens (Human), UniProt P31644+Q8N1C3); assay: Radioligand binding assay, [3H]RO7239181 competition, γ1-containing GABAA subtypes; conditions: HEK293F membranes, mean of two determinations
Description: The affinity of compounds at GABAA γ1 subunit-containing receptors was measured by competition for [^3H]RO7239181 (67.3 Ci/mmol; Roche) binding to membranes from HEK293F cells (ThermoFisher R79007) expressing human (transiently transfected) receptors of composition α5β2γ1, α2β2γ1, α1β2γ1. For better protein expression of the α2 subunit-containing receptors, the 28 amino acid long signal peptide (Met1 to Ala28) of the human GABAA α2 subunit was substituted by the 31 amino acid long signal peptide (Met1 to Ser31) of human GABAA α5 subunit.
Harvested pellets from HEK293F cells expressing the different GABAA receptor subtypes were resuspended in Mannitol Buffer pH 7.2-7.4 (Mannitol 0.29M, Triethylamine 10 mM, Acetic acid 10 mM, EDTA 1 mM plus protease inhibitors (20 tablets Complete, Roche Diagnostics Cat. No. 05 056 489 001 per liter)), washed two times and then resuspended at 1:10 to 1:15 dilution in the same buffer. Cell disruption was performed by stirring the suspension in a Parr vessel #4637 at 435 psi for 15 minutes, and then the suspensions were centrifuged at 1000×g for 15 minutes at 4° C. (Beckman Avanti J-HC; rotor JS)-4.2). The supernatant (S1) was transferred in a 21 Schott flask and the pellet (P1) was resuspended with Mannitol Buffer up to 175 ml. The resuspended pellet was transferred into a 250 ml Corning centrifugal beaker and centrifuged at 1500×g for 10 minutes at 4° C. (Beckman Avanti J-HC; rotor JS)-4.2). The supernatant (S1) was then transferred in the 21 Schott flask and the pellet was discarded. The supernatants (S1) were centrifuged in 500 ml Beckman polypropylene centrifugal beaker at 15,000×g for 30 minutes at 4° C. (Beckman Avanti J-20 XP; rotor JLA-10.500). The pellet (P2) was resuspended with Mannitol Buffer 1:1 and frozen at −80° C. The supernatant (S2) was centrifuged in 100 ml Beckman polypropylene centrifugal tubes at 48000×g for 50 minutes at […] (Beckman Avanti J-20 XP; rotor JA-18). The supernatant (S3) was discarded and the pellet (P3) was resuspended with 1:1 Mannitol Buffer. The P2 and P3 protein concentration was determined with the BIORAD Standard assay method with bovine serum albumin as standard and measured on the NANO-Drop 1000. The membrane suspension was aliquots (500 μl per tube) and stored at −80° C. until required.
Membrane homogenates were resuspended and polytronised (Polytron PT1200E Kinematica AG) in Potassium Phosphate 10 mM, KCl 100 mM binding buffer at pH 7.4 to a final assay concentration determined with a previous experiment.
Radioligand binding assays were carried out in a volume of 200 µL (96-well plates) which contained 100 μL of cell membranes, [^3H]RO7239181 at a concentration of 1.5 nM (α5β2γ1) or 20-30 nM (α1β2γ1, 2β2γ1) and the test compound in the range of [0.3-10000]×10^−9 M. Nonspecific binding was defined by 10×10^−6 (α5β2γ1) and 30×10^−6 M RO7235136 and typically represented less than 5% (α5β2γ1) and less than 20% (α1β2γ1, α2β2γ1) of the total binding. Assays were incubated to equilibrium for 1 hour at 4° C. and then, membranes were filtered onto unifilter (96-well white microplate with bonded GF/C filters preincubated 20-50 minutes in 0.3% Polyethylenimine) with a Filtermate 196 harvester (Packard BioScience) and washed 4 times with cold Potassium Phosphate 10 mM pH 7.4, KCl 100 mM binding buffer. After drying, filter-retained radioactivity was detected by liquid scintillation counting. K, values were calculated using Excel-Fit (Microsoft) and are the means of two determinations.
Representative test results, obtained by the above described assay measuring binding affinity to HEK293 cells expressing human (h) receptors, are shown in the Table 1.

[2] = target: human GABAA α1β3γ2 receptor (Homo sapiens (Human), UniProt P14867+P18507); assay: Radioligand binding assay, [3H]Flumazenil competition, γ2-containing GABAA subtypes; conditions: HEK293F membranes, [3H]Flumazenil 1 nM, mean of two determinations; read-out: Ki h-GABAA α1β3γ2
Summary of the method: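 Competition with [3H]Flumazenil (81.1 Ci/mmol) for binding to HEK293F cells transiently expressing human α1β3γ2 receptors, prepared in Mannitol Buffer pH 7.2-7.4. Incubated 1 hour at 4° C to equilibrium, filtered, washed with ice-cold 50 mM Tris pH 7.5, counted by liquid scintillation. Ki values are means of two determinations.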

Structure (SMILES): CCc1ccc2c(c1Cl)C(c1c(F)cccc1F)=N[C@@H](C)c1nnc(C)n1-2 [Example 109, (4S)-7-chloro-6-(2,6-difluorophenyl)-8-ethyl-1,4-dimethyl-4H-[1,2,4]triazolo[4,3-a][1,4]benzodiazepine]
- Ki [1]: 3.7 nM
- Ki [2]: 754 nM
